These results are taken from patent publication US12285437B2 (The Research Foundation for The State University of new York, priority 2019, dated 2025).

Where two headings read alike, the source gives them in different places.

Data set [1] can be described thus: HPLC assay of Dox release from DMA prodrugs 2/4/6 at different pH values. The format is physicochemical. The following applies: 37° C., pH 7.4, 10 h. Here is the method:
The pH-dependence of drug release from Dox-DMA prodrugs as followed in HPLC assays. To test the pH-sensitivity of drug release, solutions of a DMA prodrug were adjusted to have pH values between 6.0 and 7.4. […] The HPLC rans were carried out with pH 8 solvents so that the DMA prodrug would not decompose during the HPLC analysis. Areas under the peaks were integrated to give the percentages.
The pH of the DMA prodrug solution was adjusted to different pH values in the range of pH 7.4-6.0. […] Representative HPLC traces are shown in ESI FIGS. S24-S29 (see these figures and their captions for more detailed information).

In data set [2] the test system is ES2 cells. Kind of data set: Imaging studies (confocal microscopy). The format is cell-based, human. Here is the method: Afterwards, the treatment solution was removed; the nuclei of the cells were labeled with staining dye Hoechst 33342; and then images were taken on a scanning confocal microscope.
Imaging studies (confocal microscopy). Approximately 8,000 ES2 cells were seeded on a colIagen-coated glass dish (MatTek Corporation, part No. P35GCOL-0-10-C) and cultured in McCoy's 5A medium with 10% fetal bovine serum and 1% penicillin-streptomycin at 37° C. in the incubator (5% CO2) overnight. […] After treatment solution was removed, the cells were washed 1× with 100 μL of DMEM/F12 pH-specific media. Prior to fluorescence imaging, the nuclei of cells were stained with 1 μg/mL Hoechst 33342 in PBS for 20 min at 37° C. in the incubator. Afterwards, cells stayed in pH-specific DMEM/F12 media during imaging. […] The images in FIGS. 33-36 were processed using LAS X and ImageJ.

The test system of data set [3] is SKOV3 human ovarian cancer cells. The following applies: FIG. 9A, 10 μM.
Procedure: (§1) pH-dependent anti-proliferation assays with cells. In 96-well plates, ˜3,000 cells were seeded per well then grown for 24-48 hr until 30-40% confluency. […] For serum effect cell plate data shown in FIG. 5I, cell viability was measured using alamar Blue assay (i.e., growth media was replaced with 45 μL of pH 7.4 DMEM/F-12 media without phenol red, 5 μL of alamar Blue reagent (10×) was added; fluorescence at 590 nm was recorded after excitation at 560 nm at 1 hr afterwards).
(§2) The reaction solution was allowed to stand at rt for 1 hr in the dark, during which the pH decreased to ˜9.6. After 1 hr, the reaction solution was split into two 50-μL portions (for pH 7.4 vs. pH 6.2-6.8 cell experiments). The pH of one portion was adjusted to pH 8 (for pH 7.4 cell experiments) or pH 7 (for pH 6.2-6.8 cell experiments). Subsequently, the solution was diluted 30-fold (to 10 μM) with pH 7.4 or pH 6.2-6.8 cell media (final volume 1.5 mL) and then filtered (0.2 micron) before used in cell experiments.
In data set [4] the test system is ES-2 human ovarian cancer cells. As to the kind of experiment: pH-dependent anti-proliferation assay (MTS; alamar Blue for FIG. 7I). The following applies: for Cell Viability Average (Avg): FIG. 7A, ES-2, 6 hr. The text has this: pH-dependent anti-proliferation assays with cells.
NaOH to adjust the pH to 9.9.

Data set [5] has as its system PC-3 human prostate cancer cells. The following applies: FIG. 9B, PC3, […], 10 μM.
Procedure: as §1, §2
The subject of data set [6] is ES2 ovarian cancer cells. As to the kind of experiment: Antiproliferation assays against ES2 cancer cells at different pH values. The format is cell-based, human. The protocol: For cell experiments, a pH 8 or pH 10 (directly from DMI to DMA conversion) solution of DMA 2/4/6 was sterilized by filtering through a 0.2-micron membrane. […] At this point, small amounts of 10 (or 25) mM of sterile aq.
Antiproliferation assays against ES2 cancer cells at different pH values. […] Treatment solution volume was 50-100 μL per well, with a set volume per well for all wells in a plate.

The subject of data set [7] is NIH:OVCAR3 human ovarian cancer cells.
Procedure: as §1, §2
Data set [8] has as its system MDA-MB-231 human breast cancer cells.
Procedure: as §1, §2

For `COc1cccc2c1C(=O)c1c(O)c3c(c(O)c1C2=O)C[C@@](O)(C(=O)CO)C[C@@H]3O[C@H]1C[C@H](N2C(=O)C(C)=C(CCC(=O)O)C2=O)[C@H](O)[C@H](C)O1` [Dox-DMI 1], the DMI formed entry in data set [1] is “about 13%”. Further, the “Dox channel signal among the DMI byproducts” value in data set [2] (ES2, 8 μM, 1 h) is “more signals”. Moreover, in data set [2] (ES2, 1 h, 4 μM Dox or 8 μM prodrug/DMI), the “Dox fluorescence signals in cells, pH 6.7 vs. 7.7” value is listed as “higher at pH 6.7 than 7.7”.

On to `COc1cccc2c1C(=O)c1c(O)c3c(c(O)c1C2=O)C[C@@](O)(C(=O)CO)C[C@@H]3O[C@H]1C[C@H](N2C(=O)C(C)=C(CCC(=O)NCCSSC[C@H](N)C(=O)O)C2=O)[C@H](O)[C@H](C)O1` [Dox-DMI-Cys 5], for which, in data set [1], the DMI formed is 26%.

Consider `COc1cccc2c1C(=O)c1c(O)c3c(c(O)c1C2=O)C[C@@](O)(C(=O)CO)C[C@@H]3O[C@H]1C[C@H](N2C(=O)C(C)=C(CCC(=O)NCCSSC[C@H](NC(=O)CC[C@H](N)C(=O)O)C(=O)NCC(=O)O)C2=O)[C@H](O)[C@H](C)O1` [Dox-DMI-GSH 7, Doxorubicin Disubstituted Maleimide Glutathione Conjugate], for which the “Cell Viability Avg” value in data set [3] (pH 6.3-6.5) came to 75%; in data set [3] (pH 7.5-7.6) it was 63%; in data set [5] (pH 6.3-6.4), 90%; in data set [5] (pH 7.5-7.6) it was 84%. The “toxicity compared to DMA 8” value in data set [4] (ES-2, 6 h (FIG. 7A)) is given as “much less toxicity”. Further, the “Cell Viability Average (Avg)” value in data set [4] (0.5 μM, pH 6.6-6.8) is on record as 90%; in data set [4] (0.5 μM, pH 7.2-7.5), 97%; in data set [4] (1 μM, pH 6.6-6.8), 79%; in data set [4] (1 μM, pH 7.2-7.5) it was 80%.

Consider `COc1cccc2c1C(=O)c1c(O)c3c(c(O)c1C2=O)C[C@@](O)(C(=O)CO)C[C@@H]3O[C@H]1C[C@H](N2C(=O)C(C)=C(CCC(=O)N[C@@H](CCC(=O)O)C(=O)O)C2=O)[C@H](O)[C@H](C)O1` [Dox-DMI-Glu 3], for which, in data set [1], the DMI formed turned out to be 26%.

In the case of `CC1=C(CCC(=O)O)C(=O)OC1=O` [anhydride 7, 2-propionic-3-methylmaleic anhydride], the “cytotoxicity of anhydride byproduct of drug release” value (“cytotoxicity” below) in data set [6] (FIG. 29D, ES2, 2, 20 or 200 μM, pH 6.7-6.8 or 7.5-7.6, 2 h) is listed as “harmless to cells”; in data set [6] (FIG. 29D, ES2, 2, 20 or 200 μM, pH 6.7-6.8 or 7.5-7.6, 2 h, listed as anhydride byproduct 7), “not cytotoxic”.

Take `CC1=C(CCC(=O)N[C@@H](CCC(=O)O)C(=O)O)C(=O)OC1=O` [byproduct 10, (3-(4-methyl-2,5-dioxo-2,5-dihydrofuran-3-yl)propanoyl)glutamic acid]: in data set [6] (FIG. 30D, ES2, 3, 30 or 300 μM, pH 6.5-6.6 or 7.4-7.5, 3 h), the “cytotoxicity” value is given as “not cytotoxic”.

`CC1=C(CCC(=O)NCCSSC[C@H](N)C(=O)O)C(=O)OC1=O` [byproduct 12]: the “cytotoxicity” value was “did not show any cytotoxicity” in data set [6] (FIG. 31D, ES2, 2, 20 or 200 μM, pH 6.7 or 7.4-7.5, 2 h); “no cytotoxic effect” in data set [6] (FIG. 31D, ES2, 2, 20 or 200 μM, pH 6.7 or 7.4-7.5, 2 h, listed as anhydride 12); “not cytotoxic” in data set [6] (FIG. 31D, ES2, 2, 20 or 200 μM, pH 6.7 or 7.4-7.5, 2 h, listed as anhydride byproduct 12).

For “Doxorubicin Disubstituted Maleamic Acid Glutathione Conjugate [Dox-DMA-GSH 8]”, the “higher potency than the free drug (3 μM)” value in data set [7] (OVCAR3, 2-3 h, 6-8 μM prodrug, pHe 6.3-6.4) is given as 2-3 ×; in data set [8] (MDA-MB231, 2-3 h, 6-8 μM prodrug, pHe 6.3-6.4) it was 2-3 ×. Besides, the “pHe at which maximum effects were seen” value in data set [7] (OVCAR3, pHe titration (FIG. 7G)) was 6.5; in data set [8] (MDA-MB231, pHe titration (FIG. 7F)), 6.5. Moreover, the “fold more potent at pHe 6.7 (than at pHe 7.4)” value in data set [4] (ES-2, 6 h) was around 2 fold. Further, in data set [4] (ES-2, 6 h, pHe 6.7), the “potency of 1 mM of prodrug compared to 0.5 mM of free Dox” value was “more potent”. In data set [4] (ES-2, pHe titration (FIG. 7E)), the “pHe at which the maximum effect was reached” value was 6.8.
